The text below walks through data of patent publication US5698515A, “Insulin-containing polymer composition for oral administration” (Institut Neftekhimicheskogo Sinteza Imeni A.V.Topchieva …, priority 1994, dated 1997).

For experiment [1], the system named is white rats with experimental diabetes (streptozotocin). Description: Blood glucose in rats with streptozotocin-induced experimental diabetes. To be noted: diabetic rat, p.e. (subcutaneously), ± 8%. In kind it is in vivo. On the procedure:
Experimental diabetes is obtained (induced) in white rats of […], weighing 180 g., by way of intraperitoneally administered streptozotocin in the amount of 70 mg. for 1 kg. of weight. Synthesized polymers began to be introduced after the glucose level has exceeded 400 mg. %.
The procedure is conducted according to Example 12 with an equal amount of insulin administered subcutaneously in the form of solution.

Experiment [2] concerns rabbits. Put plainly: Glucose concentration in blood of rabbits after oral administration of insulin hydrogels. Type of experiment: in vivo. To be noted: rabbit, orally, ± 8%. On the procedure: 0.1 g. of a pre-dried crosslinked polyacrylamide, modified with ovomucoid, is placed in 1 ml. of an aqueous solution of insulin (insulin activity is 25 U/mg.) with a concentration of 1.0 mg./ml. per hour at room temperature. During this time limit the polymer swells completely and is ready to use. The synthesized hydrogel in an amount corresponding to 5 units of insulin per kg. of animal weight is administered to rabbits orally, using a catheter. Blood samples are collected after 30, 60, 90 and 120 minutes.
The procedure is conducted according to Example 1 using various crosslinked modified polymers, various concentrations of the insulin solution, various quantities of the cross-linked modified polymers and various amounts of ovomucoid.
The procedure is conducted according to Example 1 but using a nonmodified polyacrylamide hydrogel.
Rabbits are treated orally with an insulin solution in an amount of 7 U/kg. of animal weight, a mixture of ovomucoid (2.5 mg./kg. weight) and insulin (8 U/kg) or a modified hydrogel (200 mg./kg. weight).

Experiment [3] relates to rabbits. The following applies: subcutaneous injection, 0.23 units of insulin, cited from earlier work.

On to “14k: Control: porcine insulin solution administered subcutaneously to rats [Example 14k]”, for which the “Glucose Conc. in Blood” value in experiment [1] (0 min) is recorded as 400 Mg./100 ml; in experiment [1] (30 min after administration), 160 Mg./100 ml; in experiment [1] (60 min after administration) it was 145 Mg./100 ml; in experiment [1] (90 min after administration), 150 Mg./100 ml.

Take “15k: Control: porcine insulin solution given orally to rabbits, 7 U/kg [Example 15k]”: the “Glucose Conc. in Blood” value is on record as 152 Mg./100 ml in experiment [2] (0 min (start), 5 U insulin/kg in Ex. 1 (Ex. 15: 7 U/kg; Ex. 16: 8 U/kg + ovomucoid 2.5 mg/kg; Ex. 17: 200 mg/kg hydrogel)); 151 Mg./100 ml in experiment [2] (30 min after administration); 150 Mg./100 ml in experiment [2] (60 min after administration); 160 Mg./100 ml in experiment [2] (90 min after administration).

Turning to insulin, in experiment [3] (150 min. after the injection), the “glucose concentration in blood” value is 120 mg./100 ml and the “reduction of glucose concentration in blood” value is 74%. Further, the “glucose concentration in blood, initial” value in experiment [3] (before) is 330 mg./100 ml.
